Results: PubChem BioAssay (NCI)
Several values for one entry are separate records, joined by “and”; a condition that tells them apart may be missing. Equal values may be shown once.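 Grown in 96-well plates, cells were treated for 48 hours with each compound at five concentrations. Insufficient inhibition: endpoint recorded as highest concentration tested. GI50 is the concentration that inhibits growth by half. TGI: total growth inhibition.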

What was measured:
Assay in all cases: NCI tumour cell line growth inhibition, 48 h
[1] = tested on: OVCAR-4 ovarian
[2] = tested on: IGROV1 ovarian
[3] = tested on: NCI-H23 lung
[4] = tested on: SN12C renal
[5] = tested on: K-562 leukemia
[6] = tested on: SF-539 CNS
[7] = tested on: HS 578T breast
[8] = tested on: SK-MEL-5 melanoma
[9] = tested on: U251 CNS
[10] = tested on: DU-145 prostate

COc1cc(NC(C)CCCN2C(=O)c3ccccc3C2=O)c2ncccc2c1OC (stereo unspecified)
GI50 [1]: 11.8 µM | TGI [1]: > 100 µM | GI50 [2]: 18.6 µM | TGI [2]: > 100 µM | GI50 [3]: 26.3 µM | TGI [3]: > 100 µM | GI50 [4]: 66.9 µM | TGI [4]: > 100 µM | GI50 [5]: 83.9 µM | TGI [5]: > 100 µM | GI50 [6]: 78 µM | TGI [6]: > 100 µM | GI50 [7]: 24.5 µM | TGI [7]: 97.3 µM | GI50 [8]: 16.5 µM | TGI [8]: 30.1 µM | GI50 [9]: 46.8 µM | TGI [9]: > 100 µM | GI50 [10]: 41.9 µM | TGI [10]: > 100 µM

COc1ccc(/C=C2/CN(CCC#N)C/C(=C\c3ccc(OC)cc3)C2=O)cc1
GI50 [1]: 4.42 µM | TGI [1]: > 100 µM | GI50 [2]: 2.77 µM | TGI [2]: 8.26 µM | GI50 [3]: 3.34 µM | TGI [3]: 19.8 µM | GI50 [4]: 2.18 µM | TGI [4]: 6.31 µM | GI50 [5]: 3.28 µM | TGI [5]: > 100 µM | GI50 [6]: 2.12 µM | TGI [6]: 5.42 µM | GI50 [7]: 2.98 µM | TGI [7]: 64.4 µM | GI50 [8]: 1.39 µM | TGI [8]: 2.74 µM | GI50 [9]: 2.1 µM | TGI [9]: 5.1 µM | GI50 [10]: 4.25 µM | TGI [10]: > 100 µM

CNc1ncc2cc(-c3cc(NC(=O)NCCC(C)(C)C)c(F)cc3C)c(C)nc2n1
GI50 [1]: 0.543 µM and 0.785 µM | TGI [1]: > 100 µM | GI50 [2]: 0.179 µM and 0.151 µM | GI50 [3]: 0.147 µM and 0.186 µM | TGI [3]: > 42.1 µM | GI50 [4]: 0.485 µM and 0.411 µM | TGI [4]: > 100 µM | GI50 [5]: 0.227 µM and 0.33 µM | TGI [5]: > 100 µM | GI50 [6]: 0.526 µM and 1.05 µM | TGI [6]: 9.49 µM and > 10 µM | GI50 [7]: 0.839 µM and 0.582 µM | TGI [7]: 33.5 µM and > 10 µM | GI50 [8]: 0.458 µM and 0.309 µM | TGI [8]: 16.3 µM and > 10 µM | GI50 [9]: 0.572 µM and 0.474 µM | TGI [9]: 31.6 µM and > 10 µM | GI50 [10]: 0.535 µM and 0.685 µM | TGI [10]: > 100 µM

CNCCNc1nc2ccccc2c2c(=O)c3cccc(C)c3sc12
GI50 [1]: 2.1 µM | TGI [1]: 8.75 µM | GI50 [2]: 1.29 µM | TGI [2]: 8.06 µM | GI50 [3]: 5.13 µM | TGI [3]: 11.7 µM | GI50 [4]: 2.04 µM | TGI [4]: 8.37 µM | GI50 [5]: 1.04 µM | TGI [5]: 2.33 µM | GI50 [6]: 6.42 µM | TGI [6]: 12.8 µM | GI50 [7]: 5.07 µM | TGI [7]: 14.2 µM | GI50 [8]: 6.14 µM | TGI [8]: 12.6 µM | GI50 [9]: 0.968 µM | TGI [9]: 2.25 µM | GI50 [10]: 1.89 µM | TGI [10]: 6.52 µM

COc1cccc(/C=C\c2ccnc3ccccc23)c1
TGI [1]: > 10 µM | TGI [2]: > 10 µM | TGI [3]: > 10 µM | TGI [4]: > 10 µM | TGI [5]: > 10 µM | TGI [6]: > 10 µM | TGI [7]: > 10 µM | TGI [8]: > 10 µM | TGI [9]: > 10 µM | TGI [10]: > 10 µM

C#Cc1ccc(-n2c(/C=C/c3ccc4ccccc4c3)nc3ncccc3c2=O)cc1
GI50 [1]: 1.95 µM | TGI [1]: > 100 µM | GI50 [2]: 2.92 µM | TGI [2]: > 100 µM | GI50 [3]: 6.39 µM | TGI [3]: > 100 µM | GI50 [4]: 3.29 µM | TGI [4]: > 100 µM | GI50 [5]: 2.43 µM | TGI [5]: > 100 µM | GI50 [6]: 2.91 µM | TGI [6]: > 100 µM | GI50 [7]: 7.62 µM | TGI [7]: > 100 µM | GI50 [8]: 1.16 µM | TGI [8]: 2.52 µM | GI50 [9]: 3.69 µM | TGI [9]: > 100 µM | GI50 [10]: 7.45 µM | TGI [10]: > 100 µM

COc1cc(/C=C/c2ccccn2)cc(OC)c1OC
TGI [1]: > 10 µM | TGI [2]: > 10 µM | TGI [3]: > 10 µM | TGI [4]: > 10 µM | TGI [5]: > 10 µM | TGI [6]: > 10 µM | TGI [7]: > 10 µM | TGI [8]: > 10 µM | TGI [9]: > 10 µM | TGI [10]: > 10 µM

O=C1NC(=N[C@H](CO)c2ccccc2)S/C1=C\c1ccc2ncccc2c1
GI50 [1]: 2.67 µM | TGI [1]: > 25 µM | GI50 [2]: 4.44 µM | TGI [2]: > 17.1 µM | GI50 [3]: 6.42 µM | TGI [3]: > 25 µM | GI50 [4]: 5.02 µM | TGI [4]: > 25 µM | GI50 [5]: 4 µM | TGI [5]: > 25 µM | GI50 [6]: 2.66 µM | TGI [6]: 7.67 µM | GI50 [7]: 3.49 µM | TGI [7]: > 13.8 µM | GI50 [8]: 4.89 µM | TGI [8]: 10.6 µM | GI50 [9]: 1.96 µM | TGI [9]: > 19.8 µM | GI50 [10]: 3.3 µM | TGI [10]: > 21.3 µM

C[C@H](c1ccccc1)N(CCC(=O)O)C(=O)CCN(C(=O)CCN(C(=O)CCN[C@H](C)c1ccccc1)[C@H](C)c1ccccc1)[C@H](C)c1ccccc1
GI50 [1]: > 100 µM | TGI [1]: > 100 µM | GI50 [2]: > 100 µM | TGI [2]: > 100 µM | GI50 [3]: > 100 µM | TGI [3]: > 100 µM | GI50 [4]: > 100 µM | TGI [4]: > 100 µM | GI50 [5]: > 100 µM | TGI [5]: > 100 µM | GI50 [6]: > 100 µM | TGI [6]: > 100 µM | GI50 [7]: > 100 µM | TGI [7]: > 100 µM | GI50 [8]: > 100 µM | TGI [8]: > 100 µM | GI50 [9]: > 100 µM | TGI [9]: > 100 µM | GI50 [10]: > 100 µM | TGI [10]: > 100 µM

CCCc1n(Cc2ccc3ccccc3n2)cc[n+]1Cc1ccc2ccccc2n1
GI50 [1]: 0.445 µM | TGI [1]: 18.3 µM | GI50 [2]: 1.48 µM | TGI [2]: 15.1 µM | GI50 [3]: 0.819 µM | TGI [3]: 14.2 µM | GI50 [4]: 2.23 µM | TGI [4]: 11.8 µM | GI50 [5]: 0.72 µM | TGI [5]: 15.9 µM | GI50 [6]: 2.14 µM | TGI [6]: 13.4 µM | GI50 [7]: 3.54 µM | TGI [7]: 23 µM | GI50 [8]: 0.866 µM | TGI [8]: 2.36 µM | GI50 [9]: 1.51 µM | TGI [9]: 12.3 µM | GI50 [10]: 4.22 µM | TGI [10]: 31.2 µM

COc1ccc2nc3cc(Cl)ccc3c(Nc3cc(C(C)C)c(O)cc3C)c2c1
GI50 [1]: 2.5 µM | TGI [1]: 9.46 µM | GI50 [2]: 1.55 µM | TGI [2]: 3.35 µM | GI50 [3]: 2.2 µM | TGI [3]: 6.02 µM | GI50 [4]: 2.55 µM | TGI [4]: 7.42 µM | GI50 [5]: 2.02 µM | TGI [5]: > 100 µM | GI50 [6]: 1.81 µM | TGI [6]: 3.61 µM | GI50 [7]: 1.61 µM | TGI [7]: 3.4 µM | GI50 [8]: 1.61 µM | TGI [8]: 3.1 µM | GI50 [9]: 1.79 µM | TGI [9]: 3.53 µM | GI50 [10]: 2.48 µM | TGI [10]: 6.97 µM

COC(=O)c1ccc2c(C(=Nc3ccc(N(C)C(=O)CN4CCN(C)CC4)cc3)c3ccccc3)c(O)[nH]c2c1
GI50 [1]: 5.17 µM and 13.1 µM | TGI [1]: 59.6 µM and > 70.8 µM | GI50 [2]: 0.839 µM and 0.967 µM | TGI [2]: 22.5 µM and > 100 µM | GI50 [3]: 5.23 µM and 6.98 µM | TGI [3]: 28.4 µM and > 100 µM | GI50 [4]: 1.23 µM and 0.959 µM | TGI [4]: 31.9 µM and > 87.6 µM | GI50 [5]: 0.224 µM and 0.466 µM | TGI [5]: > 100 µM | GI50 [6]: 0.597 µM and 1.4 µM | TGI [6]: 2.26 µM and 5.9 µM | GI50 [7]: 0.546 µM and 0.648 µM | GI50 [8]: 3.94 µM and 2.32 µM | TGI [8]: 9.86 µM and 6.51 µM | GI50 [9]: 1.44 µM and 1.77 µM | GI50 [10]: 3.22 µM and 6.14 µM | TGI [10]: 14.9 µM and > 100 µM

CCc1ccc([O-])c(C=NCCCN(C)CCCN=Cc2cc(C)ccc2[O-])c1.[Co+3].[N-]=[N+]=[N-]
GI50 [1]: 50 µg/mL and 90.8 µg/mL | TGI [1]: 50 µg/mL and > 150 µg/mL | GI50 [2]: 20.5 µg/mL and 24.6 µg/mL | TGI [2]: 50 µg/mL and 55.5 µg/mL | GI50 [3]: 50 µg/mL and 33.8 µg/mL | TGI [3]: 50 µg/mL and 129 µg/mL | GI50 [4]: 50 µg/mL and 61.8 µg/mL | TGI [4]: 50 µg/mL and > 150 µg/mL | GI50 [5]: 5 µg/mL and 74 µg/mL | GI50 [6]: 50 µg/mL and 22.7 µg/mL | TGI [6]: 50 µg/mL and 82.3 µg/mL | GI50 [7]: 13.8 µg/mL | TGI [7]: 50 µg/mL | GI50 [8]: 50 µg/mL and 139 µg/mL | TGI [8]: 50 µg/mL and > 150 µg/mL | GI50 [9]: 20.1 µg/mL and 33 µg/mL | TGI [9]: 50 µg/mL and 123 µg/mL | GI50 [10]: 11.6 µg/mL | TGI [10]: 50 µg/mL
